A word on the IC50: it is the concentration that gives 50% inhibition. A high value points to weaker potency. One may read the EC50 as the midpoint of the concentration-response curve.

Results on 26 compounds are retold here after patent US20060276464A1, “Diarylsulfone sulfonamides and use thereof” (Wyeth, priority 2005, published 2006).

Each structure is given as a SMILES string.

The target of test [1] is T1, SFRP-1 (Homo sapiens, UniProt Q8N474).
T1 sequence (Q8N474 32-314): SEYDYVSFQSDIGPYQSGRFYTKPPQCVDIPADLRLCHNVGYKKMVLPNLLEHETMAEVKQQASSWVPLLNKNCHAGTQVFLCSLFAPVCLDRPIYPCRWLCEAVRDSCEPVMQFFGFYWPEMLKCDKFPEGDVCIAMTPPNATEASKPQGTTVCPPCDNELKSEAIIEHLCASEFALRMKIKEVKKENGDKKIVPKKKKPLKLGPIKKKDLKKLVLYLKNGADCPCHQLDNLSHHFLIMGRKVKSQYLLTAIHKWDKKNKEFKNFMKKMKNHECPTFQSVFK
In words: Fluorescence polarization binding assay (competitive displacement of a probe compound from SFRP-1).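 Note: test compound competes with a fluorescent probe held by SFRP-1, seen as a drop in probe anisotropy after incubation in darkness, with anisotropy as function of rising compound dose.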 The conditions noted are these: fluorescence anisotropy, 45 nM SFRP-1, 20 nM probe. A general note: In fluorescence polarisation assays a small probe gives low polarisation when free and higher when bound to something large.

Test [2] concerns the target T1, SFRP-1. Put plainly: Cell-based assay for in vitro measurement of SFRP-1/SARP2 antagonist activity (U2OS cells co-transfected with 16x TCF-tk-Luciferase reporter, Wnt and hSFRP-1).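 For all read-outs here: U2OS cells co-transfected with a TCF-tk luciferase reporter, a Wnt vector, hSFRP-1 or empty vector and CMV-βgal, luciferase luminescence read in cell lysates alongside βgal activity.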 The following applies: for fold induction at 10 µM: U2OS, read-out: Fold Induction with SFRP-1, U2OS cells, single dose 10 μM, luciferase reporter, fold induction over SFRP-1 control.

In turn, `COC(=O)c1ccc(CNS(=O)(=O)c2cc(S(=O)(=O)c3ccccc3)ccc2C(F)(F)F)cc1` [Example 950, methyl 4-[({[5-(phenylsulfonyl)-2-(trifluoromethyl)phenyl]sulfonyl}amino)methyl]benzoate] displayed a half-maximal inhibitory concentration (IC50) in test [1] of 1800 nM. Further, in test [2], a half-maximal effect (EC50) was put at 1840 nM and the fold induction at 10 µM amounted to 2.6.

`CC(C)c1ccc(S(=O)(=O)c2ccccc2)cc1S(=O)(=O)NC1CCCC(C(=O)O)C1` (stereo not shown) [Example 952, 3-({[2-isopropyl-5-(phenylsulfonyl)phenyl]sulfonyl}amino)cyclohexanecarboxylic acid] gave an IC50 in test [1] of 5000 nM. The fold induction at 10 µM in test [2] is 1.4.

In the case of `CC(C)c1ccc(S(=O)(=O)c2ccccc2)cc1S(=O)(=O)NC1CCC(C(=O)O)CC1` (stereo not shown) [Example 953, 4-({[2-isopropyl-5-(phenylsulfonyl)phenyl]sulfonyl}amino)cyclohexanecarboxylic acid], in test [1], the IC50 was 7000 nM. The fold induction at 10 µM in test [2] is 1.5.

Regarding `CC(C)c1ccc(S(=O)(=O)c2ccccc2)cc1S(=O)(=O)NC[C@H]1CC[C@H](C(=O)O)CC1` [Example 954, trans-4-[({[2-isopropyl-5-(phenylsulfonyl)phenyl]sulfonyl}amino)methyl]cyclohexanecarboxylic acid], the IC50 in test [1] turned out to be 900 nM. Moreover, in test [2], the response was half-maximal at 5570 nM (EC50) and the fold induction at 10 µM was 2.2.

With `CN(CCCNS(=O)(=O)c1cc(S(=O)(=O)c2ccccc2)ccc1C(F)(F)F)C(=O)NC1CCN(C(=O)OC(C)(C)C)CC1` [Example 955], the IC50 in test [1] was 6000 nM. In test [2], the EC50 came to 5160 nM and the fold induction at 10 µM was found to be 2.4.

`O=C(O)c1cccc(N2CCC(CNS(=O)(=O)c3cc(S(=O)(=O)c4ccccc4)ccc3C(F)(F)F)CC2)c1` [Example 956, 3-{4-[({[5-(phenylsulfonyl)-2-(trifluoromethyl)phenyl]sulfonyl}amino)methyl]piperidin-1-yl}benzoic acid] registered an IC50 in test [1] of 110 nM. Also, in test [2], the concentration for a half-maximal effect (EC50) is 310 nM and the fold induction at 10 µM worked out at 4.3.

The compound `O=C(O)c1cccc(N2CCC(CCNS(=O)(=O)c3cc(S(=O)(=O)c4ccccc4)ccc3C(F)(F)F)CC2)c1` [Example 957, 3-{4-[2-({[5-(phenylsulfonyl)-2-(trifluoromethyl)phenyl]sulfonyl}amino)ethyl]piperidin-1-yl}benzoic acid] gave an IC50 in test [1] of 300 nM. Further, in test [2], the EC50 is 1390 nM and the fold induction at 10 µM is 3.9.

In test [1], `N[C@H]1CC[C@H](NS(=O)(=O)c2cc(S(=O)(=O)c3ccccc3)ccc2C(F)(F)F)CC1` [Example 959, N-(trans-4-aminocyclohexyl)-5-(phenylsulfonyl)-2-(trifluoromethyl)benzenesulfonamide] returned an IC50 of 400 nM. In test [2], the midpoint of the response, the EC50, lay at 390 nM and the fold induction at 10 µM was 3.7.

`CN(CCNS(=O)(=O)c1cc(S(=O)(=O)c2ccccc2)ccc1C(F)(F)F)CCC(=O)OC(C)(C)C` [Example 961, tert-butyl N-methyl-N-[2-({[5-(phenylsulfonyl)-2-(trifluoromethyl)phenyl]sulfonyl}amino)ethyl]-[…]-alaninate]: the half-inhibitory concentration (IC50) in test [1] is 4000 nM. In test [2], the EC50 amounted to 2550 nM and the fold induction at 10 µM came to 2.8.

The compound `CN(CCNS(=O)(=O)c1cc(S(=O)(=O)c2ccccc2)ccc1C(F)(F)F)CC(=O)OC(C)(C)C` [Example 962, tert-butyl N-methyl-N-[2-({[5-(phenylsulfonyl)-2-(trifluoromethyl)phenyl]sulfonyl}amino)ethyl]glycinate] had an IC50 in test [1] of 3000 nM. Further, in test [2], the EC50 was determined as 2860 nM and the fold induction at 10 µM was 2.7.

`O=C(O)c1cccc(S(=O)(=O)Nc2ccc(CNS(=O)(=O)c3cc(S(=O)(=O)c4ccccc4)ccc3C(F)(F)F)cc2)c1` [Example 963]: in test [1], the IC50 is 300 nM. Besides, in test [2], the EC50 turned out to be 1160 nM and the fold induction at 10 µM amounted to 3.5.

On to `N#Cc1ccc(CCNS(=O)(=O)c2cc(S(=O)(=O)c3ccccc3)ccc2C(F)(F)F)cc1` [Example 966, N-[2-(4-cyanophenyl)ethyl]-5-(phenylsulfonyl)-2-(trifluoromethyl)benzenesulfonamide], for which the IC50 in test [1] was 500 nM. Moreover, in test [2], the EC50 was 229 nM and the fold induction at 10 µM was determined as 1.5.

In test [1], `O=C(O)C1CCCC(NS(=O)(=O)c2cc(S(=O)(=O)c3ccccc3)ccc2C(F)(F)F)C1` (stereo not shown) [Example 967, 3-({[5-(phenylsulfonyl)-2-(trifluoromethyl)phenyl]sulfonyl}amino)cyclohexanecarboxylic acid] returned an IC50 of 2500 nM. The fold induction at 10 µM in test [2] worked out at 2.1.

Turning to `O=C(O)C1CCC(NS(=O)(=O)c2cc(S(=O)(=O)c3ccccc3)ccc2C(F)(F)F)CC1` (stereo not shown) [Example 968, 4-({[5-(phenylsulfonyl)-2-(trifluoromethyl)phenyl]sulfonyl}amino)cyclohexanecarboxylic acid], the IC50 in test [1] turned out to be 1400 nM. Also, in test [2], the fold induction at 10 µM came to 2.4.

`O=C(O)[C@H]1CC[C@H](CNS(=O)(=O)c2cc(S(=O)(=O)c3ccccc3)ccc2C(F)(F)F)CC1` [Example 969, trans-4-[({[5-(phenylsulfonyl)-2-(trifluoromethyl)phenyl]sulfonyl}amino)methyl]cyclohexanecarboxylic acid] showed an IC50 in test [1] of 180 nM. For the same compound, in test [2], the EC50 came out at 588 nM and the fold induction at 10 µM worked out at 3.1.

Compound `CN(CCCNS(=O)(=O)c1cc(S(=O)(=O)c2ccccc2)ccc1C(F)(F)F)C(=O)NC1CCNCC1` [Example 971, N-(3-{methyl[(piperidin-4-ylamino)carbonyl]amino}propyl)-5-(phenylsulfonyl)-2-(trifluoromethyl)benzenesulfonamide] returned an IC50 in test [1] of 600 nM. Also, in test [2], it took 774 nM to reach a half-maximal effect (EC50) and the fold induction at 10 µM was 2.7.

Regarding `CN(CCCNS(=O)(=O)c1cc(S(=O)(=O)c2ccccc2)ccc1C(F)(F)F)C(=O)N1CCNCC1` [Example 975, N-methyl-N-[3-({[5-(phenylsulfonyl)-2-(trifluoromethyl)phenyl]sulfonyl}amino)propyl]piperazine-1-carboxamide], the IC50 in test [1] was found to be 1500 nM. In addition, the 50% effective concentration (EC50) in test [2] was 5700 nM.

Regarding `O=C(c1cc(Cl)cnc1Cl)N1CCC(NS(=O)(=O)c2cc(S(=O)(=O)c3ccccc3)ccc2C(F)(F)F)CC1` [Example 977, N-{1-[(2,5-dichloropyridin-3-yl)carbonyl]piperidin-4-yl}-5-(phenylsulfonyl)-2-(trifluoromethyl)benzenesulfonamide], the IC50 in test [1] stood at 180 nM. The compound further returned an EC50 in test [2] of 1100 nM.

`O=C(c1ccnc(Cl)c1)N1CCC(NS(=O)(=O)c2cc(S(=O)(=O)c3ccccc3)ccc2C(F)(F)F)CC1` [Example 978, N-[1-(2-chloroisonicotinoyl)piperidin-4-yl]-5-(phenylsulfonyl)-2-(trifluoromethyl)benzenesulfonamide]: in test [1], the IC50 was determined as 250 nM. For the same compound, in test [2], the EC50 is 392 nM.

As for `O=C(O)c1ccc(-c2ccc(CNS(=O)(=O)c3cc(S(=O)(=O)c4ccccc4)ccc3C(F)(F)F)cc2)cc1` [Example 979, 4′-[({[5-(phenylsulfonyl)-2-(trifluoromethyl)phenyl]sulfonyl}amino)methyl]biphenyl-4-carboxylic acid], the IC50 in test [1] worked out at 2200 nM. Also, the concentration for a half-maximal effect (EC50) in test [2] was found to be 2940 nM.

Regarding `CN(CCNS(=O)(=O)c1cc(S(=O)(=O)c2ccccc2)ccc1C(F)(F)F)C(=O)NC1CCN(C(=O)CCC(=O)O)CC1` [Example 980, 4-{4-[({methyl[2-({[5-(phenylsulfonyl)-2-(trifluoromethyl)phenyl]sulfonyl}amino)ethyl]amino}carbonyl)amino]piperidin-1-yl}-4-oxobutanoic acid], the IC50 in test [1] was 400 nM. The 50% effective concentration (EC50) in test [2] is 853 nM.

In the case of `CN(CCNS(=O)(=O)c1cc(S(=O)(=O)c2ccccc2)ccc1C(F)(F)F)C(=O)c1ccc(CBr)cc1` [Example 983, 4-(bromomethyl)-N-methyl-N-[2-({[5-(phenylsulfonyl)-2-(trifluoromethyl)phenyl]sulfonyl}amino)ethyl]benzamide], the IC50 in test [1] came to 800 nM. The compound further gave a half-maximal effective concentration (EC50) in test [2] of 1140 nM.

Compound `O=S(=O)(NCCc1ccc(-c2nn[nH]n2)cc1)c1cc(S(=O)(=O)c2ccccc2)ccc1C(F)(F)F` [Example 984, 5-(phenylsulfonyl)-N-{2-[4-(2H-tetrazol-5-yl)phenyl]ethyl}-2-(trifluoromethyl)benzenesulfonamide] returned an IC50 in test [1] of 200 nM. The compound further gave an EC50 in test [2] of 657 nM.

The compound `CS(=O)(=O)Nc1ccc(CCNS(=O)(=O)c2cc(S(=O)(=O)c3ccccc3)ccc2C(F)(F)F)cc1` [Example 987, N-(2-{4-[(methylsulfonyl)amino]phenyl}ethyl)-5-(phenylsulfonyl)-2-(trifluoromethyl)benzenesulfonamide] had a half-inhibitory concentration (IC50) in test [1] of 140 nM. This compound came in with an EC50 in test [2] of 231 nM.

For `CC(C)(C)OC(=O)NCCCNS(=O)(=O)c1cc(S(=O)(=O)c2ccccc2)ccc1C(F)(F)F` [Example 988, tert-butyl [3-({[5-(phenylsulfonyl)-2-(trifluoromethyl)phenyl]sulfonyl}amino)propyl]carbamate], the IC50 in test [1] worked out at 1100 nM. The same compound displayed an EC50 in test [2] of 1890 nM.

`CN(CCNS(=O)(=O)c1cc(S(=O)(=O)c2ccccc2)ccc1C(F)(F)F)C(=O)N[C@@H]1CCN(C(=O)OC(C)(C)C)C1` [Example 990, tert-butyl (3R)-3-[({methyl[2-({[5-(phenylsulfonyl)-2-(trifluoromethyl)phenyl]sulfonyl}amino)ethyl]amino}carbonyl)amino]pyrrolidine-1-carboxylate]: the IC50 in test [1] turned out to be 130 nM. The compound also yielded an EC50 in test [2] of 577 nM.
